Measured values published in publication PMC11151202 (Molecular Pharmaceutics, 2024).
Values after ≈ are worked out from the molar mass of the structure shown. One block for each compound: values may come before it.

Legend:
Biorelevant solubility = format: physicochemical; settings: 37 °C, biorelevant media pH 6.5 (3 mM taurocholate, 0.75 mM phospholipids), mean ± SD, n = 3
Experimental: The media utilized in this experiment were composed of 2 mM Tris-maleate, 150 mM NaCl, and 1.06 mM CaCl2. The pH of the media was adjusted to pH 6.5. The media were supplemented with FaSSIF powder a day prior to the experiment, resulting in a composition of the final biorelevant media of 3 mM taurocholate and 0.75 mM phospholipids. This final solution will be referred to as the “biorelevant media” throughout this paper. The biorelevant media was left at room temperature at least 2 h prior to usage. […] The suspensions were placed in an oven at 37 °C and were stirred at 200 rpm. Samples were taken at time points of 3, 6, and 24 h and centrifuged at 21,380g (Mikro 200 R, Hettich GmbH, Germany) for 30 min at 37 °C. The resulting supernatant was transferred to a new sample tube and centrifuged again under identical conditions. Samples were diluted 1:10 (v/v) with the mobile phase before analysis. The samples were analyzed using an Agilent 1200 series HPLC system (Agilent Technology Inc., United States) via HPLC, as described above.

[1] = Saturation during in vitro testing (saturation ratio); format: physicochemical; settings: all cases: medium- and long-chain LBFs, after dispersion and digestion
Experimental: The degree of saturation of drug concentrations in the aqueous phase during the in vitro lipolysis experiment was measured by comparing the measured aqueous phase concentration to the equilibrium drug solubility in samples containing dispersed and digested nondrug loaded formulations under identical conditions. Excess drug or lipophilic salt was added to 2 mL samples of the blank aqueous phase and stirred at 37 °C for 24 h. Samples were withdrawn, centrifuged, and analyzed under conditions identical to those in Section 2.2.9. […] Saturation ratios were evaluated at the end of the dispersion phase and the end of the digestion phase.

[2] = Equilibrium solubility studies in lipid excipients / LBFs; format: physicochemical; settings: 37 °C, venetoclax free base equivalents
Experimental: Samples were stirred at 200 rpm (Mixdrive 15 2MAG, Germany) at 37 °C. Samples were withdrawn after 24, 48, and 72 h, followed by centrifugation at 21,000g (Mikro 200R Andreas Hettich GmbH & Co. KG, Germany) for 30 min. The supernatant was extracted and centrifuged again under identical conditions. The resulting supernatant was solubilized 1:10 v/v in a mixture of acetonitrile and ethyl acetate (1:4 v/v), followed by a further 1:10 v/v dilution in acetonitrile and ethyl acetate (4:1 v/v). Samples were analyzed by HPLC as per the method above. All samples were analyzed in triplicate.

[3] = cited from earlier work
[4] = In vitro lipolysis (dispersion and digestion) of LBFs; format: physicochemical
Experimental: The LBFs were assayed using the in vitro lipolysis method[25] to assess the potential for formulations containing dissolved lipophilic salt to maintain the drug in a solubilized state as the formulation is dispersed and digested under simulated gastrointestinal conditions. Formulations utilized in this experiment were loaded at 80% equilibrium solubility as per Section 2.2.6, at drug doses outlined in Table 3.
The in vitro lipolysis experiments were performed using a pH stat apparatus (Metrohm AG, Herisau, Switzerland) comprising an 836 Titando, an 804 Ti Stand, a pH electrode (Metrohm), and two 800 Dosino 20 mL dosing units. The system was operated by Tiamo 2.5 software (Metrohm). The biorelevant medium described in Section 2.2.8 was used for this experiment. The pancreatin extract (8× USP) was reconstituted immediately prior to use by adding 5 mL of the biorelevant medium to 1 g of pancreatin, vortexed thoroughly, and centrifuged at 4000g for 15 min at 4 °C (Centrifuge 5702 R, Eppendorf, Germany); 4 mL of the resulting supernatant was recovered and immediately stored on ice before further usage. […] The amount of NaOH dispensed was recorded by the system and used to assess the rate and extent of digestion. […] As the formulation is a type III-A formulation, ultracentrifugation was not required as the lipids should readily disperse within the biorelevant medium.[25] […]

SMILES: CC1(C)CCC(CN2CCN(c3ccc(C(=O)NS(=O)(=O)c4ccc(NCC5CCOCC5)c([N+](=O)[O-])c4)c(Oc4cnc5[nH]ccc5c4)c3)CC2)=C(c2ccc(Cl)cc2)C1.CCCCCCCCCCOS(=O)(=O)O [venetoclax decyl sulfate]
- biorelevant solubility (Biorelevant solubility): 10.3 ± 0.8 µg/mL

SMILES: CC1(C)CCC(CN2CCN(c3ccc(C(=O)NS(=O)(=O)c4ccc(NCC5CCOCC5)c([N+](=O)[O-])c4)c(Oc4cnc5[nH]ccc5c4)c3)CC2)=C(c2ccc(Cl)cc2)C1.CCCCC(CC)COC(=O)CC(C(=O)OCC(CC)CCCC)S(=O)(=O)O [venetoclax docusate]
- saturation ratio [1]: < 10.3
- apparent equilibrium solubility in long-chain LBF [2]: > 25 mg/g
- apparent equilibrium solubility in medium-chain LBF [2]: > 50 mg/g
- biorelevant solubility (Biorelevant solubility): 16.2 ± 1.6 µg/mL

SMILES: CC1(C)CCC(CN2CCN(c3ccc(C(=O)NS(=O)(=O)c4ccc(NCC5CCOCC5)c([N+](=O)[O-])c4)c(Oc4cnc5[nH]ccc5c4)c3)CC2)=C(c2ccc(Cl)cc2)C1.CCCCCCCCCCCCS(=O)(=O)O [venetoclax dodecanesulfonate]
- apparent equilibrium solubility in long-chain LBF [2]: > 25 mg/g
- apparent equilibrium solubility in medium-chain LBF [2]: > 50 mg/g
- biorelevant solubility (Biorelevant solubility): 9.8 ± 1.4 µg/mL

SMILES: CC1(C)CCC(CN2CCN(c3ccc(C(=O)NS(=O)(=O)c4ccc(NCC5CCOCC5)c([N+](=O)[O-])c4)c(Oc4cnc5[nH]ccc5c4)c3)CC2)=C(c2ccc(Cl)cc2)C1.CCCCCCCCCCCCCCCCCCOS(=O)(=O)O [venetoclax octadecyl sulfate]
- biorelevant solubility (Biorelevant solubility): 8.4 ± 0.7 µg/mL

The next lines start with results.

- biorelevant solubility (Biorelevant solubility): 7.7 ± 0.6 µg/mL
SMILES: CC1(C)CCC(CN2CCN(c3ccc(C(=O)NS(=O)(=O)c4ccc(NCC5CCOCC5)c([N+](=O)[O-])c4)c(Oc4cnc5[nH]ccc5c4)c3)CC2)=C(c2ccc(Cl)cc2)C1.CCCCCCCCOS(=O)(=O)O [venetoclax octyl sulfate]

- concentration of venetoclax in the aqueous phase ([4]; LBFs loaded with free base, dispersion and digestion): < 50 µg/mL
- dose precipitated ([4]; medium- and long-chain formulations): greater than 80%
- solubility (Biorelevant solubility; biorelevant media (FaSSIF-supplemented Tris-maleate buffer), fassif, thermodynamic from solid): 5.5 ± 1 µg/mL (≈ 6.33 µM)
SMILES: CC1(C)CCC(CN2CCN(c3ccc(C(=O)NS(=O)(=O)c4ccc(NCC5CCOCC5)c([N+](=O)[O-])c4)c(Oc4cnc5[nH]ccc5c4)c3)CC2)=C(c2ccc(Cl)cc2)C1 [venetoclax]
- solubility in medium- and long-chain triglycerides [3]: < 1000 µg/mL

- biorelevant solubility (Biorelevant solubility): 7.4 ± 0.7 µg/mL
SMILES: CC1(C)CCC(CN2CCN(c3ccc(C(=O)NS(=O)(=O)c4ccc(NCC5CCOCC5)c([N+](=O)[O-])c4)c(Oc4cnc5[nH]ccc5c4)c3)CC2)=C(c2ccc(Cl)cc2)C1.CCCCCCCCS(=O)(=O)O [venetoclax octanesulfonate]
